Reference: paper PMC12309256 (Current Research in Microbial Sciences, 2025)

Tested on: AsDddY
Experiment: HPLC of acrylate, initial rates, nonlinear Michaelis-Menten fit
Type: biochemical, Acinetobacter sp. ZS25
Settings: pH 8.0, 50 °C; 0.5 nM enzyme; DMSP 1-20 mM

- Km: 2600 µM
Structure (SMILES): C[S+](C)CCC(=O)[O-] [DMSP, dimethylsulfoniopropionate]
